Measurements taken from PubChem BioAssay (NCI).
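Grown in 96-well plates, cells were treated for 48 hours with each compound at five concentrations. Insufficient inhibition: endpoint recorded as highest concentration tested. Definition used: TGI = concentration required for complete inhibition of growth.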

Legend:
Experiment in all cases: NCI tumour cell line growth inhibition, 48 h
OVCAR-3 ovarian = test system: OVCAR-3 ovarian
HCT-116 colon = test system: HCT-116 colon
UACC-257 melanoma = test system: UACC-257 melanoma
OVCAR-8 ovarian = test system: OVCAR-8 ovarian
SW-620 colon = test system: SW-620 colon
OVCAR-4 ovarian = test system: OVCAR-4 ovarian
OVCAR-5 ovarian = test system: OVCAR-5 ovarian
SF-268 CNS = test system: SF-268 CNS
RXF 393 renal = test system: RXF 393 renal
HCC-2998 colon = test system: HCC-2998 colon
UACC-62 melanoma = test system: UACC-62 melanoma
NCI-H522 lung = test system: NCI-H522 lung
UO-31 renal = test system: UO-31 renal
HOP-62 NSCLC = test system: HOP-62 NSCLC
HT29 colon = test system: HT29 colon
RPMI-8226 leukemia = test system: RPMI-8226 leukemia
EKVX NSCLC = test system: EKVX NSCLC
IGROV1 ovarian = test system: IGROV1 ovarian
NCI-H460 lung = test system: NCI-H460 lung
DMS 273 small cell lung = test system: DMS 273 small cell lung
SNB-19 CNS = test system: SNB-19 CNS
SR leukemia = test system: SR leukemia
M14 melanoma = test system: M14 melanoma
NCI-H23 lung = test system: NCI-H23 lung
SNB-78 CNS = test system: SNB-78 CNS
SF-539 CNS = test system: SF-539 CNS
K-562 leukemia = test system: K-562 leukemia
U251 CNS = test system: U251 CNS
A549 NSCLC = test system: A549 NSCLC
ACHN renal = test system: ACHN renal
SK-MEL-28 melanoma = test system: SK-MEL-28 melanoma
CAKI-1 renal = test system: CAKI-1 renal
TK-10 renal = test system: TK-10 renal
LOX IMVI melanoma = test system: LOX IMVI melanoma
NCI-H226 lung = test system: NCI-H226 lung
SN12C renal = test system: SN12C renal
HL-60(TB) leukemia = test system: HL-60(TB) leukemia
HCT-15 colon = test system: HCT-15 colon
LXFL 529 NSCLC = test system: LXFL 529 NSCLC
SK-MEL-2 melanoma = test system: SK-MEL-2 melanoma
DMS 114 small cell lung = test system: DMS 114 small cell lung
MOLT-4 leukemia = test system: MOLT-4 leukemia
A498 renal = test system: A498 renal
786-0 renal = test system: 786-0 renal
CCRF-CEM leukemia = test system: CCRF-CEM leukemia
SF-295 CNS = test system: SF-295 CNS
KM20L2 colon = test system: KM20L2 colon
M19-MEL melanoma = test system: M19-MEL melanoma
COLO 205 colon = test system: COLO 205 colon
DLD-1 colon = test system: DLD-1 colon
SK-MEL-5 melanoma = test system: SK-MEL-5 melanoma
MALME-3M melanoma = test system: MALME-3M melanoma
KM12 colon = test system: KM12 colon
SK-OV-3 ovarian = test system: SK-OV-3 ovarian
SNB-75 CNS = test system: SNB-75 CNS
HOP-92 NSCLC = test system: HOP-92 NSCLC

CC(SC(=S)Nc1cccc(F)c1)C(=O)O (stereo unspecified)
TGI (OVCAR-3 ovarian): > 100 µM | TGI (HCT-116 colon): 37.6 µM | TGI (UACC-257 melanoma): 33.5 µM | TGI (OVCAR-8 ovarian): 76 µM | TGI (SW-620 colon): > 100 µM | TGI (OVCAR-4 ovarian): > 100 µM | TGI (OVCAR-5 ovarian): > 100 µM | TGI (SF-268 CNS): 32.6 µM | TGI (RXF 393 renal): 29.1 µM | TGI (HCC-2998 colon): > 100 µM | TGI (UACC-62 melanoma): 36.4 µM | TGI (NCI-H522 lung): 34.9 µM | TGI (UO-31 renal): 74.5 µM | TGI (HOP-62 NSCLC): 59.6 µM | TGI (HT29 colon): > 100 µM | TGI (RPMI-8226 leukemia): 34.3 µM | TGI (EKVX NSCLC): > 100 µM | TGI (IGROV1 ovarian): 11 µM | TGI (NCI-H460 lung): 68 µM | TGI (DMS 273 small cell lung): 24.5 µM | TGI (SNB-19 CNS): 99.6 µM | TGI (SR leukemia): 30.8 µM | TGI (M14 melanoma): 35 µM | TGI (NCI-H23 lung): 52.3 µM | TGI (SNB-78 CNS): > 100 µM | TGI (SF-539 CNS): 38 µM | TGI (K-562 leukemia): 38.9 µM | TGI (U251 CNS): 84.9 µM | TGI (A549 NSCLC): > 100 µM | TGI (ACHN renal): > 100 µM | TGI (SK-MEL-28 melanoma): 32.1 µM | TGI (CAKI-1 renal): > 100 µM | TGI (TK-10 renal): > 100 µM | TGI (LOX IMVI melanoma): 32.4 µM | TGI (NCI-H226 lung): 44.3 µM | TGI (SN12C renal): > 100 µM | TGI (HL-60(TB) leukemia): 29.4 µM | TGI (HCT-15 colon): 83.7 µM | TGI (LXFL 529 NSCLC): 69.1 µM | TGI (SK-MEL-2 melanoma): 46.5 µM | TGI (DMS 114 small cell lung): 31.7 µM | TGI (MOLT-4 leukemia): 46.5 µM | TGI (A498 renal): 77 µM | TGI (786-0 renal): > 100 µM | TGI (CCRF-CEM leukemia): 55.3 µM | TGI (SF-295 CNS): 52.7 µM | TGI (KM20L2 colon): 90.8 µM

COC(=O)c1nc(-c2ccc(Cl)c(Cl)c2)nc2ccc(Cl)cc12
TGI (HCT-116 colon): > 100 µM | TGI (UACC-257 melanoma): > 100 µM | TGI (OVCAR-8 ovarian): > 100 µM | TGI (M19-MEL melanoma): > 100 µM | TGI (SW-620 colon): > 100 µM | TGI (OVCAR-5 ovarian): > 100 µM | TGI (SF-268 CNS): > 100 µM | TGI (RXF 393 renal): 63.5 µM | TGI (COLO 205 colon): > 100 µM | TGI (HCC-2998 colon): > 100 µM | TGI (UACC-62 melanoma): > 100 µM | TGI (UO-31 renal): > 100 µM | TGI (DLD-1 colon): > 100 µM | TGI (HT29 colon): > 100 µM | TGI (SK-MEL-5 melanoma): > 100 µM | TGI (MALME-3M melanoma): > 100 µM | TGI (RPMI-8226 leukemia): > 100 µM | TGI (EKVX NSCLC): > 100 µM | TGI (IGROV1 ovarian): > 100 µM | TGI (NCI-H460 lung): > 100 µM | TGI (DMS 273 small cell lung): > 100 µM | TGI (SNB-19 CNS): > 100 µM | TGI (SR leukemia): > 100 µM | TGI (NCI-H23 lung): > 100 µM | TGI (SNB-78 CNS): > 100 µM | TGI (SF-539 CNS): 84.1 µM | TGI (U251 CNS): > 100 µM | TGI (A549 NSCLC): > 100 µM | TGI (ACHN renal): > 100 µM | TGI (KM12 colon): > 100 µM | TGI (SK-MEL-28 melanoma): > 100 µM | TGI (TK-10 renal): > 100 µM | TGI (SN12C renal): > 100 µM | TGI (HL-60(TB) leukemia): > 100 µM | TGI (LXFL 529 NSCLC): > 100 µM | TGI (SK-MEL-2 melanoma): > 100 µM | TGI (DMS 114 small cell lung): > 100 µM | TGI (A498 renal): > 100 µM | TGI (786-0 renal): 73 µM | TGI (SK-OV-3 ovarian): 43.1 µM | TGI (SNB-75 CNS): 51.3 µM | TGI (SF-295 CNS): > 100 µM | TGI (HOP-92 NSCLC): 37.7 µM | TGI (KM20L2 colon): > 100 µM
